Data on 33 molecules can be found in patent US9834535B2, “Sulfamate derivative compounds for use in treating or alleviating pain” (Bio-Pharm Solutions Co., Ltd., priority 2013, dated 2017).

This data set deals with CFA-induced pain model. As to the kind of experiment: Antiallodynic activity on Complete Freund's Adjuvant (CFA)-induced inflammatory pain model (von Frey). To be noted: rat, intraperitoneal. It is filed as in vivo, Sprague-Dawley rats. Here is the method:
Male, Sprague-Dawley rats (200-220 g, Nara Bio, Korea) were habituated for 1 week before surgery and allowed free access to food and water throughout the experimentation. Room temperature and humidity were maintained at 24±2° C. and 50±10%, respectively.
CFA-induced inflammatory pain was induced by the procedure of Nagakura et al. (2003) and Gregory P. et al. (2010) with minor modifications. CFA (sigma, USA) was injected in the left plantar with a 100 ul volume under gaseous anesthesia with isoflurane a 4:4 flow ratio of NO2 Sham controls were injected with 100 ul of saline and vehicle controls were identical to CFA infusion model, except for administration of vehicles.
Tactile sensitivity (Mechanical allodynia) was evaluated using von Frey monofilaments before and after treatment, and animals were used withdrawal threshold value was less than 4 g. One week after surgery, CFA-infused animals (n=4˜6), sham-operated animals (n=12), and vehicle-operated animals (n=17) were tested for tactile sensitivity with von Frey monofilaments 3 trials in each animal. All Animals were placed in a stainless steel mashed chamber and habituated for 30 min in the test box. The tactile sensitivity for ipsilateral hind paw was measured using the up-and-down method (Dixon, 1980) with seven von Frey monofilaments (0.4, 1, 2, 4, 6, 8, and 15 g) to 3 trials. Tactile sensitivity test was followed by Dixon's method (Dixon, 1980). The 50% paw withdrawal threshold for each paw was calculated using the following formula: [Xth] log=[vFr] log+ky where [vFr] is the force of the last von Frey used, k=0.2249 which is the average interval (in log units) between the von Frey monofilaments, and y is a value that depends upon the pattern of withdrawal responses (Dixon, 1980).
[…] The test was performed peak time of efficacy (0.5 hr) after compound administration.
The relative values compared to the sham (% control) were calculated and shown in Table 4, which show an antiallodynic effect of the compound of Examples on CFA-induced pain model in rats.

The mark [1] stands for this setting: Rattus norvegicus, ip, 0.5 h, 60 mg/kg, 0.5 h, read-out: CFA model: effect (%) at the concentration administered.
Setting [2] is: Rattus norvegicus, ip, 0.5 h, 0.5 h, read-out: CFA model: effect (%) at the concentration administered.

SMILES strings stand for the structures. Read-outs that look alike come from different tables or passages of the source.

For `CC1(C)O[C@@H](COS(N)(=O)=O)[C@H](c2ccc(Cl)cc2Cl)O1` [Example 40, ((4S,5S)-5-(2,4-dichlorophenyl)-2,2-dimethyl-1,3-dioxolan-4-yl)methyl sulfamate], the response vs control in vivo at 60 mg/kg under setting [1] turned out to be 22.5%.

In the case of `CCC1(CC)O[C@@H](COS(N)(=O)=O)[C@H](c2ccccc2)O1` [Example 108, ((4S,5S)-5-phenyl-2,2-diethyl-1,3-dioxolan-4-yl)methyl sulfamate], the response vs control in vivo at 40 mg/kg under setting [2] turned out to be 37.5%. Still for that read-out and setting: the result for `CC1(C)O[C@H](c2sc(Cl)nc2Cl)[C@@H](COS(N)(=O)=O)O1` [Example 163, ((4R,5S)-5-(2,4-dichlorothiazol-5-yl)-2,2-dimethyl-1,3-dioxolan-4-yl)methyl sulfamate] reads 23.1%. Turning to `Cc1nc(Cl)sc1[C@@H]1OC(C)(C)O[C@H]1COS(N)(=O)=O` [Example 170, ((4S,5R)-2,2-dimethyl-5-(2-chloro-4-methylthiazol-5-yl)-1,3-dioxolan-4-yl)methyl sulfamate], under setting [1], the response vs control in vivo at 60 mg/kg was 24.2%. The same measure, in the same setting: the result for `NS(=O)(=O)OC[C@@H]1OC(=O)O[C@H]1c1ccccc1[N+](=O)[O-]` [Example 90, ((4S, 5S)-5-(2-nitrophenyl)-2-oxo-1,3-dioxolan-4-yl)methyl sulfamate] reads 15.6%; that for `NS(=O)(=O)OC[C@@H]1OC2(CCCC2)O[C@H]1c1ccccc1Cl` [Example 10, ((2S,3S)-3-(2-chlorophenyl)-1,4-dioxaspiro[4,4]nonan-2-yl)methyl sulfamate], 20.7%. On to `CNc1ccccc1[C@@H]1OC(C)(C)O[C@H]1COS(=O)(=O)NC` [Example 104, ((4S, 5S)-5-(2-methylaminophenyl)-2,2-dimethyl-1,3-dioxolan-4-yl)methyl methylsulfamate], for which the response vs control in vivo at 40 mg/kg under setting [2] was determined as 24.1%. As to `CC1(C)OC(COS(N)(=O)=O)C(c2cncnc2)O1` (stereo not shown) [Example 175, 2,2-dimethyl-5-(pyrimidin-5-yl)-1,3-dioxolan-4-yl)methyl sulfamate], the response vs control in vivo at 60 mg/kg under setting [1] worked out at 44.4%.

For `CC1(C)O[C@H](c2cnc(Cl)s2)[C@@H](COS(N)(=O)=O)O1` (stereo in doubt) [Example 166, ((4R,5S)-5-(2-chlorothiazol-5-yl)-2,2-dimethyl-1,3-dioxolan-4-yl)methyl sulfamate], the response vs control in vivo at 60 mg/kg under setting [1] was 30.4%. Take `CCC1(CC)O[C@@H](COS(N)(=O)=O)[C@H](c2ccccc2N)O1` [Example 70, ((4S,5S)-5-(2-aminophenyl)-2,2-diethyl-1,3-dioxolan-4-yl)methyl sulfamate]: the response vs control in vivo at 40 mg/kg under setting [2] was 18.8%. For the molecule `CC1(C)O[C@@H](COS(N)(=O)=O)[C@H](c2ccccc2N)O1` [Example 66], the response vs control in vivo at 60 mg/kg (Rattus norvegicus, ip, 1 h, 60 mg/kg, 1 h, read-out: CFA model: effect (%) at the concentration administered) was found to be 16.5%. Regarding `NS(=O)(=O)OCC[C@H]1OC2(CCCCC2)O[C@@H]1Cc1ccccc1` [Example 120, 2-((2R,3R)-3-benzyl-1,4-dioxaspiro[4,5]decan-2-yl)ethyl sulfamate], the response vs control in vivo at 40 mg/kg under setting [2] came to 23%. As to `NS(=O)(=O)OC[C@@H]1OC2(CCCCC2)O[C@H]1c1ccccc1` [Example 112, ((2S,3S)-3-phenyl-1,4-dioxaspiro[4,5]decan-2-yl)methyl sulfamate], the response vs control in vivo at 40 mg/kg under setting [2] worked out at 41.1%. For the molecule `CC1(C)O[C@@H](COS(N)(=O)=O)[C@H](c2sc(Cl)nc2Cl)O1` [Example 164, ((4S,5R)-5-(2,4 dichlorothiazol-5-yl)-2,2-dimethyl-1,3-dioxolan-4-yl)methyl sulfamate], under setting [1], the response vs control in vivo at 60 mg/kg is 66.8%. Turning to `CCC1(CC)O[C@H](COS(N)(=O)=O)[C@@H](Cc2ccccc2Cl)O1` [Example 148, ((4R,5R)-5-(2-chlorobenzyl)-2,2-diethyl-1,3-dioxolan-4-yl)methyl sulfamate], under setting [2], the response vs control in vivo at 40 mg/kg worked out at 15.5%.

Turning to `NS(=O)(=O)OC[C@H]1OC2(CCCC2)O[C@@H]1Cc1ccccc1` [Example 126, ((2R,3R)-3-benzyl-1,4-dioxaspiro[4,4]nonan-2-yl)methyl sulfamate], the response vs control in vivo at 40 mg/kg under setting [2] came to 43.5%. Consider `CC1(C)O[C@H](c2ccccc2Cl)[C@@H](COS(N)(=O)=O)O1` [Example 1, ((4R,5R)-5-(2-chlorophenyl)-2,2-dimethyl-1,3-dioxolan-4-yl)methyl sulfamate], for which the response vs control in vivo at 60 mg/kg under setting [1] amounted to 21.1%. In the case of `Nc1ccccc1[C@@H]1OC2(CCCCC2)O[C@H]1COS(N)(=O)=O` [Example 74, ((2S,3S)-3-(2-aminophenyl)-1,4-dioxaspiro[4,5]decan-2-yl)methyl sulfamate], the response vs control in vivo at 60 mg/kg under setting [1] worked out at 37.1%.

For the molecule `CC1(C)O[C@H](c2cnc(Cl)s2)[C@@H](COS(N)(=O)=O)O1` [Example 165, ((4R,5S)-5-(2-chlorothiazol-5-yl)-2,2-dimethyl-1,3-dioxolan-4-yl)methyl sulfamate], the ED50 (commonly the dose at which the effect has come halfway, by size or by number of responders) (ip, von Frey, 0.5 h) is above 60 mg/kg. Further, under “noted with ED50 >60 mg/kg”, the “CFA model: adverse observation” value is “Seizure”. Regarding `NS(=O)(=O)OCC[C@H]1OC2(CCCCC2)O[C@@H]1Cc1ccccc1Cl` [Example 144, 2-((2R,3R)-3-(2-chlorobenzyl)-1,4-dioxaspiro[4,5]decan-2-yl)ethyl sulfamate], under setting [2], the response vs control in vivo at 40 mg/kg is 36.6%. On the same count and under the same terms, the result for `CCC1(CC)O[C@@H](COS(N)(=O)=O)[C@H](c2ccccc2Cl)O1` [Example 8, ((4S,5S)-5-(2-chlorophenyl)-2,2-diethyl-1,3-dioxolan-4-yl)methyl sulfamate] reads 23.3%. The same measure, in the same setting: to `NS(=O)(=O)OC[C@@H]1OC2(CCCC2)O[C@H]1c1ccccc1` [Example 110, ((2S,3S)-3-phenyl-1,4-dioxaspiro[4,4]nonan-2-yl)methyl sulfamate] belongs 42.7%. As for `CC1(C)O[C@@H](COS(N)(=O)=O)[C@H](c2c(Cl)cccc2Cl)O1` [Example 52, ((4S,5S)-5-(2,6-dichlorophenyl)-2,2-dimethyl-1,3-dioxolan-4-yl)methyl sulfamate], the response vs control in vivo at 60 mg/kg under setting [1] amounted to 33.3%. Regarding `NS(=O)(=O)OC[C@H]1OC2(CCCC2)O[C@@H]1Cc1ccccc1Cl` [Example 150, ((2R,3R)-3-(2-chlorobenzyl)-1,4-dioxaspiro[4,4]nonan-2-yl)methyl sulfamate], under setting [2], the response vs control in vivo at 40 mg/kg amounted to 17.6%.

Turning to `NS(=O)(=O)OCC[C@@H]1OC2(CCCC2)O[C@H]1c1ccccc1` [Example 134, 2-((2S,3S)-3-phenyl-1,4-dioxaspiro[4,4]nonan-2-yl)ethyl sulfamate], the response vs control in vivo at 18 mg/kg (Rattus norvegicus, ip, 0.5 h, 18 mg/kg, 0.5 h, read-out: CFA model: effect (%) at the concentration administered) came out at 71.1%. Turning to `CC1(C)OC(COS(N)(=O)=O)C(c2ccccc2Cl)O1` (mixture of isomers) [Example 4, (5-(2-chlorophenyl)-2,2-dimethyl-1,3-dioxolan-4-yl)methyl sulfamate(SR & RS mixture)], the “CFA model: effect (%) at the concentration administered” value (60 mg/kg, 0.5 h) was “^#60 (49.9%, 0.5 h)”. With `CC1(C)O[C@@H](CCOS(N)(=O)=O)[C@H](c2ccccc2)O1` [Example 130, 2-((4S,5S)-5-phenyl-2,2-dimethyl-1,3-dioxolan-4-yl)ethyl sulfamate], the response vs control in vivo at 40 mg/kg under setting [2] was found to be 19.4%. Consider `Cc1ncsc1[C@@H]1OC(C)(C)O[C@H]1COS(N)(=O)=O` [Example 168, ((4S,5R)-2,2-dimethyl-5-(4-methylthiazol-5-yl)-1,3-dioxolan-4-yl)methyl sulfamate], for which, under setting [1], the response vs control in vivo at 60 mg/kg came out at 77.2%. Turning to `CC1(C)OC(COS(N)(=O)=O)C(c2ccncc2Cl)O1` (stereo not shown) [Example 173, (5-(3-chloropyridin-4-yl)-2,2-dimethyl-1,3-dioxolan-4-yl)methyl sulfamate], the response vs control in vivo at 60 mg/kg under setting [1] came out at 33.9%. The same measure, in the same setting: the result for `CC1(C)O[C@@H](COS(N)(=O)=O)[C@H](c2ccc(Cl)s2)O1` [Example 172, ((4S,5R)-2,2-dimethyl-5-(5-chlorothiophen-2-yl)-1,3-dioxolan-4-yl)methyl sulfamate] reads 35.9%; that for `CC1(C)O[C@@H](COS(N)(=O)=O)[C@H](c2ccsc2)O1` [Example 171, ((4S,5S)-2,2-dimethyl-5-(thiophen-3-yl)-1,3-dioxolan-4-yl)methyl sulfamate], 29.8%.

As to `CCC1(CC)O[C@@H](CCOS(N)(=O)=O)[C@H](c2ccccc2Cl)O1` [Example 156, 2-((4S,5S)-5-(2-chlorophenyl)-2,2-diethyl-1,3-dioxolan-4-yl)ethyl sulfamate], the response vs control in vivo at 40 mg/kg under setting [2] worked out at 30.8%. The same measure, in the same setting: the result for `NS(=O)(=O)OCC[C@@H]1OC2(CCCC2)O[C@H]1c1ccccc1Cl` [Example 158, 2-((2S,3S)-3-(2-chlorophenyl)-1.4-dioxaspiro[4,4]nonan-2-yl)ethyl sulfamate] reads 29.8%.
